Among the test systems are OVCAR-5 ovarian; 786-0 renal; RPMI-8226 leukemia; OVCAR-4 ovarian; A549 NSCLC; SK-MEL-28 melanoma; M14 melanoma; OVCAR-3 ovarian; LOX IMVI melanoma.
Assay in all cases: NCI anticancer screen, dose series, 48 h

The structures appear in SMILES notation.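 Compound exposure: 48 hours, 5 concentrations, 96-well plates. GI50 is the concentration that inhibits growth by half. At the TGI there is no net growth.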

Turning to `COP(=O)(OC)C12CCOCCN1c1ccccc1C2=O` (stereo not drawn), the TGI in the assay with OVCAR-5 ovarian, in the assay on 786-0 renal, with RPMI-8226 leukemia, with OVCAR-4 ovarian, in the assay on A549 NSCLC and in the assay on SK-MEL-28 melanoma was more than 100 µM each time. Moreover, the TGI in the assay on M14 melanoma and in the assay with OVCAR-3 ovarian was more than 100 µM in each case.

Take `COC(=O)[C@H](Cc1ccccc1)NC(=O)c1ccc(CNC(=O)/C=C/c2cccc(Oc3ccccc3)c2)cc1`: the TGI is more than 100 µM in the assay with OVCAR-5 ovarian; more than 100 µM in the assay with 786-0 renal; more than 100 µM with RPMI-8226 leukemia; more than 100 µM in the assay on OVCAR-4 ovarian; more than 100 µM with A549 NSCLC; 23.9 µM in the assay with SK-MEL-28 melanoma. Also, the figures for the TGI in the assay on M14 melanoma and with OVCAR-3 ovarian were 30.8 µM and 40.4 µM, respectively.

Take `CCCCC/C(C=O)=C\c1ccccc1`: the TGI in the assay on 786-0 renal, in the assay with RPMI-8226 leukemia, in the assay with OVCAR-4 ovarian, in the assay with LOX IMVI melanoma, with SK-MEL-28 melanoma and in the assay with M14 melanoma was more than 100 µM throughout.

With `COc1ccc(N=NC(=Nc2ccc(F)cc2)c2ccc(N(CCC#N)CCC#N)cc2)cc1`, the TGI with OVCAR-5 ovarian is more than 100 µM; with 786-0 renal, more than 100 µM; with RPMI-8226 leukemia, more than 100 µM; with OVCAR-4 ovarian it was more than 100 µM; in the assay on A549 NSCLC, 43.1 µM; in the assay on SK-MEL-28 melanoma, more than 100 µM. Moreover, the TGI in the assay with M14 melanoma and in the assay on OVCAR-3 ovarian was more than 100 µM each time.

In the case of `Cc1ccc(-c2c(C#N)c(-c3ccc([N+](=O)[O-])cc3)c(C#N)c(=O)n2NS(=O)(=O)c2ccccc2)cc1`, the TGI with OVCAR-5 ovarian was more than 100 µM; in the assay with 786-0 renal, more than 100 µM; in the assay on OVCAR-4 ovarian, more than 100 µM; in the assay with A549 NSCLC, more than 100 µM; with LOX IMVI melanoma, 83 µM; with SK-MEL-28 melanoma, more than 100 µM. The compound further had a TGI in the assay on M14 melanoma of more than 100 µM.

Take `CN1COCc2cc3cc4c(cc3nc21)OCCO4`: the TGI in the assay on OVCAR-5 ovarian is more than 100 µM; in the assay on 786-0 renal, more than 100 µM; in the assay with RPMI-8226 leukemia it was 62.5 µM; in the assay on OVCAR-4 ovarian, more than 100 µM; in the assay on A549 NSCLC it was more than 100 µM; in the assay with LOX IMVI melanoma, more than 100 µM. In addition, in the assay with M14 melanoma, the TGI is more than 100 µM.

`CCCCN(CCCC)C(=C(C(Cl)=C(Cl)Cl)[N+](=O)[O-])N(CCCC)CCCC`: the TGI was more than 100 µM in the assay on OVCAR-5 ovarian; more than 100 µM in the assay with 786-0 renal; 58.7 µM in the assay on RPMI-8226 leukemia; more than 100 µM in the assay with OVCAR-4 ovarian; more than 100 µM with A549 NSCLC; more than 100 µM with SK-MEL-28 melanoma. Besides, the TGI in the assay on M14 melanoma and in the assay with OVCAR-3 ovarian was more than 100 µM in each case.

Turning to `COc1ccc2c(c1)CCN=C2c1ccccc1CCCCl`, the TGI in the assay on OVCAR-5 ovarian was more than 100 µM; with 786-0 renal it was more than 100 µM; in the assay on RPMI-8226 leukemia, 11.8 µM; with OVCAR-4 ovarian, 52.2 µM; in the assay with A549 NSCLC, more than 100 µM; in the assay with SK-MEL-28 melanoma it was more than 100 µM. Moreover, the TGI with M14 melanoma and in the assay with OVCAR-3 ovarian was more than 100 µM each time.

On to `O=c1n(Cc2ccccc2)c(=O)n2c(=O)n(Cc3ccccc3)c(=O)n12`, for which the TGI in the assay with 786-0 renal, in the assay on RPMI-8226 leukemia, in the assay on OVCAR-4 ovarian, in the assay with LOX IMVI melanoma and in the assay with SK-MEL-28 melanoma was more than 100 µM throughout.

For `c1csc(-c2c3ccc(=[N+]4CCCCC4)cc-3oc3cc(N4CCCCC4)ccc23)c1`, the values for the GI50 with OVCAR-5 ovarian, with SK-MEL-28 melanoma and with M14 melanoma were 0.202 µM, 0.143 µM and 0.0776 µM, respectively. In addition, the results for the TGI with OVCAR-5 ovarian, in the assay on SK-MEL-28 melanoma and with M14 melanoma were 0.733 µM, 0.293 µM and 0.215 µM, respectively.

Turning to `CC1=CC(=O)CC2(C)CCC(C(C)CC(=O)CC(C)C)CC12` (stereo not drawn), the TGI in the assay on OVCAR-5 ovarian was more than 100 µM; in the assay with 786-0 renal it was 31 µM; with RPMI-8226 leukemia, 60.8 µM; in the assay with OVCAR-4 ovarian it was more than 100 µM; in the assay on A549 NSCLC, 34.8 µM; with LOX IMVI melanoma, 34.8 µM. Besides, the TGI was 72.9 µM with SK-MEL-28 melanoma and 32.1 µM in the assay with M14 melanoma.

For the compound `O=C(O)CSC(NC(=O)C(C(F)(F)F)C(F)(F)F)(C(F)(F)F)C(F)(F)F`, the TGI with OVCAR-5 ovarian, in the assay with 786-0 renal, in the assay with RPMI-8226 leukemia, in the assay on A549 NSCLC, in the assay with LOX IMVI melanoma and in the assay with SK-MEL-28 melanoma was more than 100 µM throughout. Moreover, the TGI in the assay on M14 melanoma is more than 100 µM.

For `COc1ccccc1N1CCN(CCCNC(=O)c2cc(Cl)c(N)c(Cl)c2)CC1`, the TGI is more than 100 µM with OVCAR-5 ovarian; more than 100 µM in the assay with 786-0 renal; 54.5 µM in the assay with RPMI-8226 leukemia; more than 100 µM in the assay on OVCAR-4 ovarian; more than 100 µM in the assay on A549 NSCLC; more than 100 µM with SK-MEL-28 melanoma. In the assay on M14 melanoma, this compound showed a TGI of 53.1 µM.
